Data as given in ChEMBL document CHEMBL4145521, “Regioselective synthesis of 3,4-diaryl-5-unsubstituted isoxazoles, analogues of natural cytostatic combretastatin A4” (Eur J Med Chem, 2018).

What was measured:
Format in all cases: functional
[1] = test system: HL-60(TB); experiment: Cytotoxicity against human HL-60(TB) cells assessed as cell growth at 0.01 uM incubated for 48 hrs by sulforhodamine B assay relative to control; conditions: HL-60, 48 h, read-out: Activity
[2] = test system: K562; experiment: Cytotoxicity against human K562 cells assessed as cell growth at 0.01 uM incubated for 48 hrs by sulforhodamine B assay relative to control; conditions: K562, 48 h, read-out: Activity
[3] = test system: A549; experiment: Cytotoxicity against human A549/ATCC cells assessed as cell growth at 0.01 uM incubated for 48 hrs by sulforhodamine B assay relative to control; conditions: A549, 48 h, read-out: Activity
[4] = test system: HOP-92; experiment: Cytotoxicity against human HOP92 cells assessed as cell growth at 0.01 uM incubated for 48 hrs by sulforhodamine B assay relative to control; conditions: HOP-92, 48 h, read-out: Activity
[5] = test system: HCT-15; experiment: Cytotoxicity against human HCT15 cells assessed as cell growth at 0.01 uM incubated for 48 hrs by sulforhodamine B assay relative to control; conditions: HCT-15, 48 h, read-out: Activity
[6] = test system: NCI/ADR-RES; experiment: Cytotoxicity against human NCI/ADR-RES cells assessed as cell growth at 0.01 uM incubated for 48 hrs by sulforhodamine B assay relative to control; conditions: read-out: Activity
[7] = test system: SK-OV-3; experiment: Cytotoxicity against human SKOV3 cells assessed as cell growth at 0.01 uM incubated for 48 hrs by sulforhodamine B assay relative to control; conditions: SK-OV-3, 48 h, read-out: Activity
[8] = test system: RXF 393; experiment: Cytotoxicity against human RXF393 cells assessed as cell growth at 0.01 uM incubated for 48 hrs by sulforhodamine B assay relative to control; conditions: RXF 393, 48 h, read-out: Activity
[9] = test system: Hs-578T; experiment: Cytotoxicity against human Hs 578T cells assessed as cell growth at 0.01 uM incubated for 48 hrs by sulforhodamine B assay relative to control; conditions: read-out: Activity
[10] = test system: HL-60(TB); experiment: Cytotoxicity against human HL-60(TB) cells assessed as cell growth at 0.1 uM incubated for 48 hrs by sulforhodamine B assay relative to control; conditions: HL-60, 48 h, read-out: Activity
[11] = test system: HCT-15; experiment: Cytotoxicity against human HCT15 cells assessed as cell growth at 0.1 uM incubated for 48 hrs by sulforhodamine B assay relative to control; conditions: HCT-15, 48 h, read-out: Activity
[12] = test system: Malme-3M; experiment: Cytotoxicity against human MALME-3M cells assessed as cell growth at 0.1 uM incubated for 48 hrs by sulforhodamine B assay relative to control; conditions: read-out: Activity
[13] = test system: SK-MEL-2; experiment: Cytotoxicity against human SK-MEL-2 cells assessed as cell growth at 0.1 uM incubated for 48 hrs by sulforhodamine B assay relative to control; conditions: SK-MEL-2, 48 h, read-out: Activity
[14] = test system: OVCAR-3; experiment: Cytotoxicity against human OVCAR3 cells assessed as cell growth at 0.1 uM incubated for 48 hrs by sulforhodamine B assay relative to control; conditions: OVCAR-3, 48 h, read-out: Activity
[15] = test system: CAKI-1; experiment: Cytotoxicity against human Caki1 cells assessed as cell growth at 0.1 uM incubated for 48 hrs by sulforhodamine B assay relative to control; conditions: CAKI-1, 48 h, read-out: Activity
[16] = test system: HOP-62; experiment: Cytotoxicity against human HOP62 cells assessed as cell growth at 1 uM incubated for 48 hrs by sulforhodamine B assay relative to control; conditions: HOP-62, 48 h, read-out: Activity
[17] = test system: HT-29; experiment: Cytotoxicity against human HT-29 cells assessed as cell growth at 1 uM incubated for 48 hrs by sulforhodamine B assay relative to control; conditions: HT-29, 48 h, read-out: Activity
[18] = test system: SF-268; experiment: Cytotoxicity against human SF268 cells assessed as cell growth at 1 uM incubated for 48 hrs by sulforhodamine B assay relative to control; conditions: SF-268, 48 h, read-out: Activity
[19] = test system: OVCAR-4; experiment: Cytotoxicity against human OVCAR4 cells assessed as cell growth at 1 uM incubated for 48 hrs by sulforhodamine B assay relative to control; conditions: OVCAR-4, 48 h, read-out: Activity
[20] = test system: SN12C; experiment: Cytotoxicity against human SN12C cells assessed as cell growth at 1 uM incubated for 48 hrs by sulforhodamine B assay relative to control; conditions: read-out: Activity
[21] = test system: UO-31; experiment: Cytotoxicity against human UO31 cells assessed as cell growth at 1 uM incubated for 48 hrs by sulforhodamine B assay relative to control; conditions: UO-31, 48 h, read-out: Activity
[22] = test system: MOLT-4; experiment: Cytotoxicity against human MOLT4 cells assessed as cell growth at 10 uM incubated for 48 hrs by sulforhodamine B assay relative to control; conditions: MOLT-4, 48 h, read-out: Activity
[23] = test system: NCI-H226; experiment: Cytotoxicity against human NCI-H226 cells assessed as cell growth at 10 uM incubated for 48 hrs by sulforhodamine B assay relative to control; conditions: NCI-H226, 48 h, read-out: Activity
[24] = test system: SF-268; experiment: Cytotoxicity against human SF268 cells assessed as cell growth at 10 uM incubated for 48 hrs by sulforhodamine B assay relative to control; conditions: SF-268, 48 h, read-out: Activity
[25] = test system: K562; experiment: Cytotoxicity against human K562 cells assessed as cell growth at 100 uM incubated for 48 hrs by sulforhodamine B assay relative to control; conditions: K562, 48 h, read-out: Activity
[26] = test system: MDA-MB-435; experiment: Cytotoxicity against human MDA-MB-435 cells assessed as cell growth at 100 uM incubated for 48 hrs by sulforhodamine B assay relative to control; conditions: MDA-MB-435, 48 h, read-out: Activity
[27] = test system: SK-MEL-5; experiment: Cytotoxicity against human SK-MEL-5 cells assessed as cell growth at 100 uM incubated for 48 hrs by sulforhodamine B assay relative to control; conditions: SK-MEL-5, 48 h, read-out: Activity
[28] = test system: NCI-H522; experiment: Cytotoxicity against human NCI-H522 cells incubated for 48 hrs by sulforhodamine B assay; conditions: NCI-H522, 48 h
[29] = test system: SF-539; experiment: Cytotoxicity against human SF539 cells incubated for 48 hrs by sulforhodamine B assay; conditions: SF-539, 48 h
[30] = test system: SK-OV-3; experiment: Cytotoxicity against human SKOV3 cells incubated for 48 hrs by sulforhodamine B assay; conditions: SK-OV-3, 48 h
[31] = test system: UO-31; experiment: Cytotoxicity against human UO31 cells incubated for 48 hrs by sulforhodamine B assay; conditions: UO-31, 48 h

Compound: COc1ccc(-c2nocc2-c2cc(OC)c(OC)c(OC)c2)cc1
- growth at 0.01 µM [1]: 105%
- growth at 0.01 µM [2]: 103%
- growth at 0.01 µM [3]: 100%
- growth at 0.01 µM [4]: 98%
- growth at 0.01 µM [5]: 88%
- growth at 0.01 µM [6]: 92%
- growth at 0.01 µM [7]: 87%
- growth at 0.01 µM [8]: 103%
- growth at 0.01 µM [9]: 92%
- growth at 0.1 µM [10]: 25%
- growth at 0.1 µM [11]: 29%
- growth at 0.1 µM [12]: 55%
- growth at 0.1 µM [13]: 39%
- growth at 0.1 µM [14]: 15%
- growth at 0.1 µM [15]: 62%
- growth at 1 µM [16]: 39%
- growth at 1 µM [17]: 2%
- growth at 1 µM [18]: 45%
- growth at 1 µM [19]: 49%
- growth at 1 µM [20]: 47%
- growth at 1 µM [21]: 43%
- growth at 10 µM [22]: 26%
- growth at 10 µM [23]: 67%
- growth at 10 µM [24]: 27%
- growth at 100 µM [25]: 4%
- growth at 100 µM [26]: -9%
- growth at 100 µM [27]: -99%
- GI50 ([28]; read-out: GI50): 22.5 nM
- LC50 ([28]; read-out: LC50): > 100000 nM
- TGI ([28]; read-out: TGI): 75.2 nM
- GI50 ([28]; read-out: pGI50 (converted)): 22.4 nM
- LC50 ([28]; read-out: pLC50 (converted)): > 100000 nM
- TGI ([28]; read-out: pTGI (converted)): 75.9 nM
- GI50 ([29]; read-out: GI50): 173 nM
- LC50 (concentration killing 50% of cells) ([29]; read-out: LC50): > 100000 nM
- TGI ([29]; read-out: TGI): 13700 nM
- GI50 ([29]; read-out: pGI50 (converted)): 174 nM
- LC50 (concentration killing 50% of cells) ([29]; read-out: pLC50 (converted)): > 100000 nM
- TGI ([29]; read-out: pTGI (converted)): 13800 nM
- GI50 ([30]; read-out: GI50): 296 nM
- LC50 ([30]; read-out: LC50): > 100000 nM
- TGI ([30]; read-out: TGI): > 100000 nM
- GI50 ([30]; read-out: pGI50 (converted)): 295 nM
- LC50 ([30]; read-out: pLC50 (converted)): > 100000 nM
- TGI ([30]; read-out: pTGI): > 100000 nM
- GI50 ([31]; read-out: GI50): 545 nM
- CC50 ([31]; read-out: LC50 (the source's name)): > 100000 nM
- TGI ([31]; read-out: TGI): 28700 nM
- GI50 ([31]; read-out: pGI50 (converted)): 550 nM
- CC50 ([31]; read-out: pLC50 (the source's name) (converted)): > 100000 nM
- TGI ([31]; read-out: pTGI (converted)): 28800 nM
